Source: ChEMBL document CHEMBL6083198, “Rational design of a high-affinity fluorescent probe for visualizing monitoring the amyloid β clearance effect of anti-Alzheimer's disease drug candidates” (Eur J Med Chem, 2024)
Calls of active or inactive are those of the source. The calls are words filed in the database; no cut-off is given here.

How the values were obtained:
[1] = target: T1, Amyloid-beta precursor protein (Homo sapiens, UniProt P05067); test: Binding affinity to amyloid beta (unknown origin) assessed as dissociation constant
T1 sequence (P05067 whole entry): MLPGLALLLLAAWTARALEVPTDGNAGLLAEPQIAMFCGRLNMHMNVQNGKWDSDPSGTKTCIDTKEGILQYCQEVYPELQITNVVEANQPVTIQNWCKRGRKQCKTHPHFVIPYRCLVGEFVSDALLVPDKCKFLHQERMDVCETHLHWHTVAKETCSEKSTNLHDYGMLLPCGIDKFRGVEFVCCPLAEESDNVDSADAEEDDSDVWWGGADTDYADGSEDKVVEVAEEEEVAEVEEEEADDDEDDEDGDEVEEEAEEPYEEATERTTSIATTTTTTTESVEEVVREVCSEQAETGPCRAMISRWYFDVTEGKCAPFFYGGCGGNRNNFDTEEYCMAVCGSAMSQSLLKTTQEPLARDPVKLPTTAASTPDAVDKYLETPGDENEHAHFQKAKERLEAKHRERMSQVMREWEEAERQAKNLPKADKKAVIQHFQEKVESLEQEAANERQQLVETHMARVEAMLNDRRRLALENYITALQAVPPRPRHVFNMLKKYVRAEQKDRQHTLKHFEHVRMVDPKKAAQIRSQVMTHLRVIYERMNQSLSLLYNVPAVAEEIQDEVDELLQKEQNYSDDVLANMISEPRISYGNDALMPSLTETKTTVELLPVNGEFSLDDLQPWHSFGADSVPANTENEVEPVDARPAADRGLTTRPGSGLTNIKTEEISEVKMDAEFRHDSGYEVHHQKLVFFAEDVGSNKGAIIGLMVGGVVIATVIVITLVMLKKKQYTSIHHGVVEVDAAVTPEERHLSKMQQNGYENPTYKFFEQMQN

Caenorhabditis elegans [2] = test: Anti-alzheimer activity against heat-induced Caenorhabditis elegans CL4176 AD paralysis model assessed as reduction in amyloid-beta deposition measured after 5 days by ThS staining based fluorescence assay; type: functional, organism-based; details: dose 100-200 µM, time 5.0 day
SH-SY5Y [3] = test: Neuroprotective activity against amyloid beta-induced toxicity in human SH-SY5Y cells assessed as reduction in fluorescence intensity at 2 uM incubated for 24 hrs by immunofluorescence staining based analysis; type: functional, cell-based
[4] = target: T1, Amyloid-beta precursor protein; test: Inhibition of amyloid beta aggregation in amyloid beta-induced human SH-SY5Y cells assessed as reduction in fluorescence intensity at 2 to 20 uM incubated for 24 hrs by Western blot analysis; type: cell-based; details: dose 2-20 µM
Caenorhabditis elegans [5] = test: Anti-alzheimer activity against heat-induced Caenorhabditis elegans CL4176 AD paralysis model assessed as reduction in amyloid-beta deposition at 100 to 200 uM; type: functional, organism-based; details: dose 100-200 µM, time 5.0 day
Caenorhabditis elegans [6] = test: Anti-alzheimer activity against heat-induced Caenorhabditis elegans CL2006 AD paralysis model assessed as reduction in amyloid-beta deposition at 200 uM measured after 5 days by ThS staining based fluorescence assay; type: functional, organism-based; details: time 5.0 day
[7] = Fluorescence property of compound in aqueous solution assessed as fluorescence quantum yield; type: physicochemical; details: buffer
[8] = target: T1, Amyloid-beta precursor protein; test: Binding affinity to amyloid beta plaques 1 to 42 (unknown origin) assessed as dissociation constant
SH-SY5Y [9] = test: Neuroprotective activity against amyloid beta-induced toxicity in human SH-SY5Y cells assessed as reduction in fluorescence intensity at 10 uM incubated for 24 hrs by immunofluorescence staining based analysis; type: functional, cell-based
Mus musculus [10] = organism: Mus musculus; test: Binding affinity to amyloid beta plaques in 12 month old male APP/PS1 transgenic mouse model assessed as signal to noise ratio in brain slice at 100 uM incubated for 30 min by confocal microscopic analysis; type: tissue-based; details: time 12.0 months
Homo sapiens [11] = organism: Homo sapiens; test: Binding affinity to lysozyme (unknown origin) at 0.05 mg/ml by fluorescence analysis
Homo sapiens [12] = organism: Homo sapiens; test: Binding affinity to phosphoesterase (unknown origin) at 0.05 mg/ml by fluorescence analysis
Homo sapiens [13] = organism: Homo sapiens; test: Binding affinity to amyloid beta fibril (unknown origin) at 0.025 mg/ml by fluorescence analysis
Mus musculus [14] = organism: Mus musculus; test: Binding affinity to amyloid beta plaques in 12 month old male APP/PS1mouse brain cerebral cortex by light-sheet microscopy; type: tissue-based; details: time 12.0 months
Homo sapiens [15] = organism: Homo sapiens; test: Binding affinity to pepsin (unknown origin) at 0.05 mg/ml by fluorescence analysis
[16] = Fluorescence property of compound in DCM assessed as fluorescence quantum yield; type: physicochemical
Trypsin (Homo sapiens) = Trypsin (Homo sapiens) (UniProt P07477+P07478+P35030); test: Binding affinity to trypsin (unknown origin) at 0.05 mg/ml by fluorescence analysis; type: protein assay
SH-SY5Y [17] = test: Cytotoxicity against human SH-SY5Y cells at 100 uM incubated for 24 hrs; type: toxicity, cell-based
[18] = Photostability of compound under continuous light irradiation; type: physicochemical
Homo sapiens [19] = organism: Homo sapiens; test: Binding affinity to amyloid beta monomer (unknown origin) assessed as dissociation constant
[20] = target: T1, Amyloid-beta precursor protein; test: Binding affinity to amyloid beta oligomers (unknown origin) at 5 uM by fluorescence analysis
[21] = Binding affinity to cellulase (unknown origin) at 0.05 mg/ml by fluorescence analysis
[22] = Stability of compound at pH 2 to 10 in presence of Amyloid beta; type: physicochemical; details: buffer
Albumin = Albumin (Bos taurus, UniProt P02769); test: Binding affinity to bovine serum albumin (unknown origin) at 0.05 mg/ml by fluorescence analysis; details: cattle
Albumin, sequence (P02769 whole entry): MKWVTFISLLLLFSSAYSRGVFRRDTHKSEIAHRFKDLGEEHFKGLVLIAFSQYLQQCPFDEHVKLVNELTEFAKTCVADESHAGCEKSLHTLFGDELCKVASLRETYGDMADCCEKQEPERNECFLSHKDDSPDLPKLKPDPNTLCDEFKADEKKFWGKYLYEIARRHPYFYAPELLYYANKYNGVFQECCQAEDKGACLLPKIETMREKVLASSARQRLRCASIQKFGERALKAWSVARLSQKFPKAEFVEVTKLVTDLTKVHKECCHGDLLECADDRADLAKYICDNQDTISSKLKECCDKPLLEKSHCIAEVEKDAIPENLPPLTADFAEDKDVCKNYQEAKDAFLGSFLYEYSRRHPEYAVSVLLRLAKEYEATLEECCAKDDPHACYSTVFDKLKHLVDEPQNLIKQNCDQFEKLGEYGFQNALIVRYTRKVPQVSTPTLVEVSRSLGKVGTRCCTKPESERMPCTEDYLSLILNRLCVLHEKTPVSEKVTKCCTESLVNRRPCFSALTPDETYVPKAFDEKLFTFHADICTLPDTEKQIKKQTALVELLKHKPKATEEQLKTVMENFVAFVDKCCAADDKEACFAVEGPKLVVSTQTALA

[23] = Binding affinity to amyloid beta oligomer (unknown origin) assessed as dissociation constant; set-up: species or system Homo sapiens
[24] = (§1) Binding affinity to amyloid beta fibril (unknown origin) assessed as dissociation constant; set-up: species or system Homo sapiens
Homo sapiens [25] = organism: Homo sapiens; test: as §1
U-87 MG = test: Cytotoxicity against human U-87 MG cells at 100 uM incubated for 24 hrs; type: toxicity, cell-based; details: u-87mg atcc
Mus musculus [26] = organism: Mus musculus; test: Binding affinity to amyloid beta plaques in 12 month old male APP/PS1 transgenic mouse model assessed as colocalization of amyloid beta plaques in brain at 100 uM incubated for 30 min by ab205240 staining based immunohistofluorescence assay; type: tissue-based; details: time 12.0 months

CN(C)c1ccc(/C=C/C=C/C=C(C#N)C#N)s1
Kd [1]: 117 nM

O=c1c(O)c(-c2ccc(O)c(O)c2)oc2cc(O)cc(O)c12
Activity (Caenorhabditis elegans [2]): Dose-dependent-effect

CC(=O)Oc1cccc(C(=O)Nc2ncc(N3CCOCC3)s2)c1
Activity (SH-SY5Y [3]): Active | Activity [4]: Active | Activity (Caenorhabditis elegans [5]): Active | Activity (Caenorhabditis elegans [6]): inactive | Activity (Caenorhabditis elegans [2]): Dose-dependent-effect

COCCOCCn1c2ccccc2c2cc(CCc3cc[n+](C)c4ccccc34)ccc21
Kd [1]: 13.1 nM

CN(C)c1ccc2cc3c(cc2c1)OCC(C=C(C#N)C#N)=C3
Kd [1]: 44.8 nM

CN(C)c1ccc(-c2ccc3cc(C#N)c(=N)oc3c2)cc1
Kd [1]: 548 nM | Activity [7]: 0.027

CCCN1/C(=C/C=C2\CCCC(C=C(C#N)C#N)=C2Cl)C(C)(C)c2ccccc21
Kd [8]: 59.1 nM

COCCOCCOC(=O)CCN1C(=O)/C(=C/c2ccc3c(c2)Sc2ccccc2N3C)SC1=S
Kd [1]: 28.2 nM

CC(=O)Oc1ccccc1C(=O)Nc1ncc([N+](=O)[O-])s1
Activity [4]: Active | Activity (Caenorhabditis elegans [5]): Active | Activity (Caenorhabditis elegans [2]): Dose-dependent-effect | Activity (SH-SY5Y [9]): Active

CN(C)c1ccc(-c2ccc(/C=C/C3CC(=C(C#N)C#N)c4ccccc4N3CCCS(=O)(=O)O)s2)cc1 (configuration not stated)
Kd [1]: 170 nM

CCN(CC)c1ccc(/C=C/C2=[O+][B-](F)(F)OC(/C=C/c3ccc(N(CC)CC)nc3)=C2CCCOc2c(C)cccc2C)cc1
Kd [8]: 506 nM

CN(C)c1ccc2cc(/C=C/c3ccc4ccccc4[n+]3C)c(=O)oc2c1
Kd [1]: 86 nM

Cc1cc(/C=C/c2ccc(N(C)C)s2)n2c1C(CCCN1CCNc3ccccc31)=C1C=CC=[N+]1[B-]2(F)F
Kd [8]: 27 nM

CN(C)c1ccc(/C=C/C=C(C#N)/C=C/C(C#N)=C/C=C/C=C/c2ccc(N(C)C)cc2)cc1
Kd [8]: 1.04 nM

CN(C)c1ccc(/C=C/c2ccc3cc(C#N)c(=O)oc3c2)cc1
Activity (Mus musculus [10]): Active | Activity (Homo sapiens [11]): inactive | Activity (Homo sapiens [12]): inactive | Activity (Homo sapiens [13]): Active | Activity (Mus musculus [14]): Active | Activity (Homo sapiens [15]): inactive | Activity [16]: 0.3 | Activity (Trypsin (Homo sapiens)): inactive | Activity (SH-SY5Y [17]): Non-toxic | Stability [18]: Stable | Activity (Homo sapiens [19]): inactive | Activity [20]: Active | Activity [21]: inactive | Stability [22]: Stable | Activity (Albumin): Not_active | Kd [23]: 81.5 nM | Kd [24]: 66.7 nM | Activity (Homo sapiens [25]): Active | Activity (U-87 MG): Non-toxic | Activity (Mus musculus [26]): Active
